Among the data in paper PMC9940851, “Seleno Containing Compounds as Potent and Selective Antifungal Agents” (ACS Infectious Diseases, 2022) are MIC and Ki values, retold here.

SMILES strings stand for the structures. Values after ≈ are worked out from the molar mass of the structure shown.

For assay [1], the system named is T1, M. pachydermatis DSMZ 6172.
T1 construct: DSMZ 6172 (CDC 16334)
As to the kind of experiment: microbe, parasite or virus in culture. Details: broth microdilution MIC, M. pachydermatis and Candida, 35 °C. The note with it: Malassezia pachydermatis, DSMZ6172. As to the method:
(§1) Inoculum preparations for antifungal assays were performed following the CLSI guidelines for antifungal susceptibility testing of yeasts.[31] Antifungal activity was evaluated on unicellular yeasts Candida albicans ATCC 10231, Candida glabrata ATCC 90030 (DSMZ 11226), Malassezia pachydermatis CDC 16334 (DSMZ 6172), Malassezia globosa ATCC MYA 4612, and Malassezia furfur ATCC 14521. All the fungal strains were stored at −80 °C in cryovials. Then Candida spp. and Malassezia pachydermatis were reactivated in RPMI 1640 broth for 24–48 h at 35 °C. The so obtained fresh cultures were streaked onto Sabouraud dextrose agar and incubated for 24–48 h at 35 °C. Malassezia globosa and furfur were reactivated in modified RPMI 1640 broth[32] for 24–48 h at 35 °C (M. furfur) and 33 °C (M. globosa), and then the cultures were streaked onto Leeming and Notman agar (MLNA) and incubated for 48–72 h at 35 °C for M. furfur and at 33 °C for M. globosa. The fungal inoculum for the testing was prepared by suspending in phosphate buffer (PB) 10 mM pH 7 4–5 colonies of about 1 mm diameter. The fungal suspension was then adjusted to a final optical density of 0.5 McFarland standard (1–5 × 10^6 cells/mL). The compound solutions were tested in a range of concentrations from 0.01 μg/mL to 256 μg/mL, and 50 μL were then added in 96 wells microtiter plates with 50 μL of fungal inoculum and incubated for 24–48 h at 35 °C. Growth and sterility controls were performed. […] Compounds 3a, 3c, 5b, 7a–d, 9c, 11e, 11i, and 14a,b were selected as representatives of the chemical moieties synthesized prior to their screen on yeasts of biomedical relevance such as M. pachydermatis DSMZ 6172, C. albicans ATCC 10231, and C. glabrata ATCC 90030 (DSMZ 11226) strains. The clinical used drugs Ketoconazole, SeS2, and Amphotericin B were included as references (Table 1).

Assay [2] deals with T2, MpaCA (Malassezia pachydermatis, UniProt A0A0M8MPA4).
T2 construct: gene Malapachy_3798
T2 sequence (A0A0M8MPA4 1-242): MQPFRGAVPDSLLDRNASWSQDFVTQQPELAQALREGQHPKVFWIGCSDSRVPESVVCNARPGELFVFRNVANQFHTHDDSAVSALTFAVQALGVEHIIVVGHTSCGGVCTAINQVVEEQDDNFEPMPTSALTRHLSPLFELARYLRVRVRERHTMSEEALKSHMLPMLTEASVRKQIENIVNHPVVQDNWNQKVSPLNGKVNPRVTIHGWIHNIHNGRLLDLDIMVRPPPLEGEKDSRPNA
As to the kind of experiment: stopped-flow CO2 hydrase assay. The format is biochemical.

Assay [3] addresses T3, MgCA (Malassezia globosa, UniProt A8Q1N3).
T3 construct: gene MGL_1814
T3 sequence (A8Q1N3 1-241): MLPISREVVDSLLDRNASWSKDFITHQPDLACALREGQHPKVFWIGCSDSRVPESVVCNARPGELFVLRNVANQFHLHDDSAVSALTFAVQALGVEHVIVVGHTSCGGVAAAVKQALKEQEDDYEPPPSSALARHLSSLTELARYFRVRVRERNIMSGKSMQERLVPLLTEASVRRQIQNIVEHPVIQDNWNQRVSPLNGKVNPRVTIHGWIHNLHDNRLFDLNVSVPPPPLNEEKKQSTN
As to the kind of experiment: stopped-flow CO2 hydrase assay. It counts as biochemical. The method, boiled down:
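Ki was derived by nonlinear least-squares fitting using the Cheng-Prusoff equation. Recombinant carbonic anhydrase at 5–12 nM was first preincubated with inhibitor at room temperature for 15 min. CO2 hydration at 1.7–17 mM CO2 was tracked by stopped-flow over 10–100 s with 0.2 mM phenol red read at 557 nm, in 20 mM Hepes pH 7.4 containing 20 mM Na2SO4. Initial rates were taken from no fewer than six traces with uncatalysed rates subtracted, and at least three determinations were averaged.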

The subject of assay [4] is T4, ATCC M. furfur 14521.
T4 construct: ATCC 14521
Kind of assay: microbe, parasite or virus in culture. The following applies: Malassezia furfur. As to the method: as §1

Assay [5] concerns T5, M. globosa ATCC MYA 4612.
T5 construct: ATCC MYA 4612
As to the kind of experiment: microbe, parasite or virus in culture. The following applies: Malassezia globosa. As for the experimental part: as §1

For `O=C(NC(=[Se])Nc1ccc(S(=O)(=O)Nc2nccs2)cc1)c1ccccc1` [10a, N-((4-(N-(Thiazol-2-yl)sulfamoyl)phenyl)carbamoselenoyl)benzamide], the MIC in assay [1] was 1 µg/mL (≈ 2.15 µM); in assay [4], 8 µg/mL (≈ 17.2 µM); in assay [5], 128 µg/mL (≈ 275 µM). Besides, the Ki was 42.9 µM in assay [2] and 52.8 µM in assay [3].
`COc1ccccc1NC(=[Se])NCCc1ccc(S(N)(=O)=O)cc1` [5f]: the MIC in assay [1] turned out to be 0.5 µg/mL (≈ 1.21 µM); in assay [4] it was 1.3 ± 0.58 µg/mL (≈ 3.15 µM); in assay [5], 256 µg/mL (≈ 621 µM). In addition, the Ki was found to be 0.525 µM in assay [2] and 0.411 µM in assay [3].
For `NS(=O)(=O)c1ccc(CCNC(=[Se])Nc2ccccc2Cl)cc1` [5e], in that order: 0.5 µg/mL (≈ 1.2 µM), 2.3 ± 1.53 µg/mL (≈ 5.52 µM), 256 µg/mL (≈ 614 µM), 0.518 µM and 0.812 µM.
With `NS(=O)(=O)c1ccc(NC(=[Se])NC(=O)c2ccc(CCl)cc2)cc1` [7i, 4-(Chloromethyl)-N-((4-sulfamoylphenyl)carbamoselenoyl)benzamide], the MIC is 6.7 ± 2.31 µg/mL (≈ 15.6 µM) in assay [1] and 16 µg/mL (≈ 37.1 µM) in assay [4]. For the same compound, the inhibition constant (Ki) in assay [2] turned out to be 67.7 µM; in assay [3], 0.877 µM.
With `NS(=O)(=O)c1ccc(O)c(NC(=[Se])NC(=O)c2ccc([N+](=O)[O-])cc2)c1` [11c, N-((2-Hydroxy-5-sulfamoylphenyl)carbamoselenoyl)-4-nitrobenzamide], the MIC came out at 0.5 µg/mL (≈ 1.13 µM) in assay [1], 5.3 ± 2.31 µg/mL (≈ 12 µM) in assay [4] and 128 µg/mL (≈ 289 µM) in assay [5]. Also, the Ki in assay [2] came to 91.2 µM; in assay [3] it was 5.02 µM.
For `NS(=O)(=O)c1ccc(CCNC(=[Se])NC(=O)c2ccc(/N=N/c3ccccc3)cc2)cc1` [9f, (E)-4-(Phenyldiazenyl)-N-((4-sulfamoylphenethyl)carbamoselenoyl)benzamide], in that order: 3.33 ± 1.15 µg/mL (≈ 6.47 µM), 2.7 ± 1.15 µg/mL (≈ 5.25 µM), 8 µg/mL (≈ 15.6 µM), 88.8 µM and 2.39 µM.
For `NS(=O)(=O)c1ccc(NC(=[Se])NC(=O)c2ccc([N+](=O)[O-])cc2)cc1` [7f, 4-Nitro-N-((4-sulfamoylphenyl)carbamoselenoyl)benzamide] the same measures were 2.2 ± 1.75 µg/mL (≈ 5.15 µM), 42.7 ± 18.5 µg/mL (≈ 99.9 µM), 64 µg/mL (≈ 150 µM), 85.4 µM and 9.01 µM.
For `O=C(NC(=[Se])Nc1ccc(S(=O)(=O)Nc2nccs2)cc1)c1ccc([N+](=O)[O-])cc1` [10d, 4-Nitro-N-((4-(N-(thiazol-2-yl)sulfamoyl)phenyl)carbamoselenoyl)benzamide], in that order: 1.8 ± 1.89 µg/mL (≈ 3.53 µM), 85.3 ± 37 µg/mL (≈ 167 µM), 26.7 ± 9.2 µg/mL (≈ 52.3 µM), 92.8 µM and 8.77 µM.
With `NS(=O)(=O)c1ccc(CCNC(=[Se])NC(=O)c2ccc(F)cc2)cc1` [9d, 4-Fluoro-N-((4-sulfamoylphenethyl)carbamoselenoyl)benzamide], the results for the MIC in assay [1], in assay [4] and in assay [5] were 1 µg/mL (≈ 2.33 µM), 2.3 ± 2.31 µg/mL (≈ 5.37 µM) and 128 µg/mL (≈ 299 µM), respectively. Further, the Ki in assay [2] is 75 µM; in assay [3], 8 µM.
As to `NS(=O)(=O)c1ccc(O)c(NC(=[Se])NC(=O)c2ccccc2)c1` [11a], the MIC in assay [1] is 1 µg/mL (≈ 2.51 µM); in assay [4], 2.7 ± 1.15 µg/mL (≈ 6.78 µM); in assay [5], 128 µg/mL (≈ 321 µM). Also, the inhibition constant (Ki) in assay [2] was 13.4 µM; in assay [3], 4.1 µM.
As to `NS(=O)(=O)c1ccc(CCNC(=[Se])NC(=O)c2ccc(I)cc2)cc1` [9e, 4-Iodo-N-((4-sulfamoylphenethyl)carbamoselenoyl)benzamide], the MIC in assay [1] is 1 µg/mL (≈ 1.86 µM); in assay [4], 3.3 ± 1.15 µg/mL (≈ 6.15 µM); in assay [5], 32 µg/mL (≈ 59.7 µM). Also, the figures for the Ki in assay [2] and in assay [3] were 83.3 µM and 1.57 µM, respectively.
For the compound `NS(=O)(=O)c1ccc(CCNC(=[Se])Nc2ccc(Br)cc2)cc1` [5d], the Ki in assay [2] worked out at 0.369 µM; in assay [3], 0.683 µM.
`NS(=O)(=O)c1cccc(NC(=[Se])Nc2ccccc2)c1` [4a]: the MIC was determined as 4 µg/mL (≈ 11.3 µM) in assay [1], 107 ± 37 µg/mL (≈ 301 µM) in assay [4] and 256 µg/mL (≈ 723 µM) in assay [5]. Further, the results for the Ki in assay [2] and in assay [3] were 0.283 µM and 0.783 µM, respectively.
For `CCCCCCCc1ccc(C(=O)NC(=[Se])Nc2cccc(S(N)(=O)=O)c2)cc1` [8b, 4-Heptyl-N-((3-sulfamoylphenyl)carbamoselenoyl)benzamide], in that order: 0.8 ± 0.29 µg/mL (≈ 1.66 µM), 6.7 ± 2.31 µg/mL (≈ 13.9 µM), 213 ± 73.9 µg/mL (≈ 444 µM), 49.3 µM and 2.19 µM.
For the compound `O=C(NC(=[Se])Nc1ccc(S(=O)(=O)Nc2nccs2)cc1)c1ccc(Cl)cc1` [10g, 4-Chloro-N-((4-(N-(thiazol-2-yl)sulfamoyl)phenyl)carbamoselenoyl)benzamide], the MIC was 1.3 ± 0.58 µg/mL (≈ 2.6 µM) in assay [1], 64 µg/mL (≈ 128 µM) in assay [4] and over 256 µg/mL in assay [5]. The Ki in assay [2] came to 66.7 µM; in assay [3], 36.1 µM.
For the compound `NS(=O)(=O)c1ccc(NC(=[Se])NC(=O)c2ccc(Br)cc2F)cc1` [7h, 4-Bromo-2-fluoro-N-((4-sulfamoylphenyl)carbamoselenoyl)benzamide], the MIC in assay [1] was 0.5 µg/mL (≈ 1.04 µM); in assay [4] it was 3.3 ± 1.15 µg/mL (≈ 6.89 µM); in assay [5], 64 µg/mL (≈ 134 µM). In addition, the inhibition constant Ki in assay [2] stood at 68.5 µM; in assay [3], 0.764 µM.
Turning to `NS(=O)(=O)c1cccc(NC(=[Se])NC(=O)c2ccc(I)cc2)c1` [8e, 4-Iodo-N-((3-sulfamoylphenyl)carbamoselenoyl)benzamide], the MIC in assay [1] is 8 µg/mL (≈ 15.7 µM); in assay [4], 6.7 ± 2.31 µg/mL (≈ 13.2 µM); in assay [5], over 256 µg/mL. The Ki came out at 77.6 µM in assay [2] and 8.74 µM in assay [3].
Consider `NS(=O)(=O)c1ccc(CCNC(=[Se])Nc2cccc(C(F)(F)F)c2)cc1` [5c], for which the figures for the Ki in assay [2] and in assay [3] were 0.992 µM and 0.701 µM, respectively.
For the compound `NS(=O)(=O)c1ccc(NC(=[Se])NC(=O)c2ccc(/N=N/c3ccccc3)cc2)cc1` [7j, (E)-4-(Phenyldiazenyl)-N-((4-sulfamoylphenyl)carbamoselenoyl)benzamide], the MIC in assay [1] stood at 2 µg/mL (≈ 4.11 µM); in assay [4], 21.3 ± 9.24 µg/mL (≈ 43.8 µM); in assay [5], 24 ± 13.9 µg/mL (≈ 49.3 µM). Moreover, the results for the Ki in assay [2] and in assay [3] were 37 µM and 2.86 µM, respectively.
As to `NS(=O)(=O)c1cccc(NC(=[Se])NC(=O)c2ccc(F)cc2)c1` [8d, 4-Fluoro-N-((3-sulfamoylphenyl)carbamoselenoyl)benzamide], the MIC amounted to 2 µg/mL (≈ 5 µM) in assay [1], 256 µg/mL (≈ 640 µM) in assay [4] and 256 µg/mL (≈ 640 µM) in assay [5]. Also, the Ki in assay [2] stood at 79.5 µM; in assay [3], 7.3 µM.
Take `NS(=O)(=O)c1cccc(NC(=[Se])Nc2ccc(F)cc2)c1` [4b]: the Ki stood at 0.342 µM in assay [2] and 0.7 µM in assay [3].
For `CCCCCCCc1ccc(C(=O)NC(=[Se])NCCc2ccc(S(N)(=O)=O)cc2)cc1` [9b, 4-Heptyl-N-((4-sulfamoylphenethyl)carbamoselenoyl)benzamide], the MIC in assay [1] was determined as 1.7 ± 0.58 µg/mL (≈ 3.34 µM); in assay [4], 1.7 ± 0.58 µg/mL (≈ 3.34 µM); in assay [5], 256 µg/mL (≈ 503 µM). Further, the figures for the inhibition constant (Ki) in assay [2] and in assay [3] were over 10 µM and 6.39 µM, respectively.
Take `NS(=O)(=O)c1ccc(CCNC(=[Se])Nc2ccccc2)cc1` [5a]: the Ki is 0.793 µM in assay [2] and 0.655 µM in assay [3].
For `NS(=O)(=O)c1ccc(NC(=[Se])Nc2ccc(F)cc2)cc1` [3b], the Ki was found to be 0.965 µM in assay [2] and 0.648 µM in assay [3].
